The structures appear in SMILES notation. Like-named read-outs stand apart in the source and are kept apart here.

One may read the Kd as the concentration at which binding is half-saturated. Lower therefore signals a tighter complex. As a reminder, the IC50 is the concentration that inhibits the measured activity by half.

One test has as its target PDGFRs. Nature of the test: KINOMEscan active-site competitive binding assay. The following applies: range among family members.
In a further test the target is RAFs. Nature of the test: KINOMEscan active-site competitive binding assay. The following applies: range among family members.
The target in test [1] is T1, KIT (Homo sapiens, UniProt P10721). The test can be described thus: Cellular kinase phosphorylation assay, M07e/KIT. It counts as cell-based. Also on record: human acute megakaryoblastic leukemia cell line (M07e; wt KIT assay); host or cells: M07e. Conditions: M07e/KIT cells; without serum; read-out: Mean ± SD IC50.
T1 sequence (P10721 26-976): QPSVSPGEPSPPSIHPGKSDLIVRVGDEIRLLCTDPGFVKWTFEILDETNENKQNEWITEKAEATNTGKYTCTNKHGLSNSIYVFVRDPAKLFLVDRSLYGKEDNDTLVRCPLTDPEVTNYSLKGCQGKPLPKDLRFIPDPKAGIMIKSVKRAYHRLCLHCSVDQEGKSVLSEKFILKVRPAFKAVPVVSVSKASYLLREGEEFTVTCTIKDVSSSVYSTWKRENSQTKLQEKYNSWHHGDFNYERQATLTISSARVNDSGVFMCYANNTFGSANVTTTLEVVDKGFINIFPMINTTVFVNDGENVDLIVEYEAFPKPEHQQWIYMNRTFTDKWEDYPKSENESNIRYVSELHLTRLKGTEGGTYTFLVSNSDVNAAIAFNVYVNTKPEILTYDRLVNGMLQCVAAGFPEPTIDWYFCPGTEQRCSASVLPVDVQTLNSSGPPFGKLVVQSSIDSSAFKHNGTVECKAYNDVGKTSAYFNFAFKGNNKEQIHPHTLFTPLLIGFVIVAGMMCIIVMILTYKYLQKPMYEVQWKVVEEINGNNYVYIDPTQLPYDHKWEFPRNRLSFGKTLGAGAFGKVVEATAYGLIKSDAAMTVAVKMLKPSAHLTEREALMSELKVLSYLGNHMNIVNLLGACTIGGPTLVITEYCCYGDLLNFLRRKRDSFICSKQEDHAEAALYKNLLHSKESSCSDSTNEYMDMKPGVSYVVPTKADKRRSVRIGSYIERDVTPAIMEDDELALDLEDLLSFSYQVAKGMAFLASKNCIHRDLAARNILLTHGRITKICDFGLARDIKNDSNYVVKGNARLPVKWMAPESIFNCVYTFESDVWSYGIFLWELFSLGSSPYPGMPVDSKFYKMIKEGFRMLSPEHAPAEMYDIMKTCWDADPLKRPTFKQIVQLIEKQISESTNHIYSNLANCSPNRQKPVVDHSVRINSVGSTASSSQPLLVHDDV
The next test deals with T2, FLT4 (Homo sapiens, UniProt P35916).
T2 construct: purchased DiscoveRx (KINOMEscan service)
T2 sequence (P35916 25-1363): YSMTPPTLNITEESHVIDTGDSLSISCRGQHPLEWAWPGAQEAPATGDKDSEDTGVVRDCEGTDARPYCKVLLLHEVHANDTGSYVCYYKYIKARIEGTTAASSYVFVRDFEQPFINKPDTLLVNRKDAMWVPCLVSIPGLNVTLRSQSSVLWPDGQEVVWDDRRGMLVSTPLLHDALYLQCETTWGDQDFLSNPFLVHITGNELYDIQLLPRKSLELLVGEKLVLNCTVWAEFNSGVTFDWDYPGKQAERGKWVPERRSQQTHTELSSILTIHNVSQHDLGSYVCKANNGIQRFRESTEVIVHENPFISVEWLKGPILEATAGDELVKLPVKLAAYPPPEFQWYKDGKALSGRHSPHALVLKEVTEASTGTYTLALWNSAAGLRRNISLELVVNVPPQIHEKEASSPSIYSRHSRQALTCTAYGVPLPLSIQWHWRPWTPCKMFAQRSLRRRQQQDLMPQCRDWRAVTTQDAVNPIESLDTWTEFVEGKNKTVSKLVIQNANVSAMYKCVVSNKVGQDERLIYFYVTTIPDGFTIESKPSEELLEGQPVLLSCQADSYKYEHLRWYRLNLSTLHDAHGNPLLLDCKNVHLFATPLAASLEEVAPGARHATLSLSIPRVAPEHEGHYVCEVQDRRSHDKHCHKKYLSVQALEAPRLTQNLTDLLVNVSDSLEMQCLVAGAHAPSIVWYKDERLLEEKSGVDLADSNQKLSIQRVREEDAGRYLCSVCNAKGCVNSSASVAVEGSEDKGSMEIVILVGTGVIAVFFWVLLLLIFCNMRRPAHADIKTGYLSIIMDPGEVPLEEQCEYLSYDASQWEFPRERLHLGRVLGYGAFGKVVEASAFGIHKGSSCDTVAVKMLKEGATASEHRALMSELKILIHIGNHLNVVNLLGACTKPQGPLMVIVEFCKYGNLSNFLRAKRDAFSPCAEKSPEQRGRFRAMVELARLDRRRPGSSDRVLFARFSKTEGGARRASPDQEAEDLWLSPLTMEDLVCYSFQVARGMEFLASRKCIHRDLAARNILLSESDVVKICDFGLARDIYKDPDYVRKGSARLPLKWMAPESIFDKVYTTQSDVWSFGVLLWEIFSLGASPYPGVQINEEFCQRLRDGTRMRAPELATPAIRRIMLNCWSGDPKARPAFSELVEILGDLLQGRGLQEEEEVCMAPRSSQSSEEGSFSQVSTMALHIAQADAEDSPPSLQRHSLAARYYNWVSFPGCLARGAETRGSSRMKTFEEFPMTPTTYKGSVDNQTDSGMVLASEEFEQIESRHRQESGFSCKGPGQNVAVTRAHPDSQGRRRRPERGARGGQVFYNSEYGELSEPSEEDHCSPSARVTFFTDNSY
The test can be described thus: KINOMEscan active-site competitive binding assay. Conditions: slash = two separate measurements.

Another test has as its target T3, PDGFRA (Homo sapiens, UniProt P16234).
T3 construct: purchased DiscoveRx
The test can be described thus: KINOMEscan active-site competitive binding assay. Conditions: slash = two separate measurements.

The subject of test [2] is HuLECs. Nature of the test: VEGF‐C‐induced migration of HuLECs (scratch assay). It counts as cell-based, human. The following applies: 100 nmol/L, 40 h. As to the method:
A sterile pipette tip was then used to scratch the cell layers, and images were taken after continued incubation for 40 h.

Another test addresses T4, FGFR2 (Homo sapiens, UniProt P21802).
T4 construct: FGFR2, but not FGFR1, is overexpressed in the SNU‐16 cell line; endogenous in cells
The test can be described thus: FGFR phosphorylation assay in SNU‐16 cells (western blot). It counts as cell-based. The following applies: SNU‐16/FGFR2 cells, 0.1% bovine serum albumin, read-out: Mean ± SD IC50. The protocol:
VEGFR2 assays were performed in murine fibroblasts (NIH‐3T3) in the presence of 0.1 mg/mL human serum albumin. […] Substrate phosphorylation was determined from total cell lysates by enzyme‐linked immunosorbent assay. In addition, an FGFR phosphorylation assay was performed using a human gastric carcinoma cell line (SNU‐16), with pFGFR assessed by western blot. The PDGFRA phosphorylation assay was performed by DiscoverRx using the DiscoverRx PathHunter cell line, modified to express PDGFRA. […] The assay signal was generated using a detection reagent cocktail and measured by chemoluminescence 13. Both the PDGFRA and FGFR assays were performed in the presence of 0.1 mg/mL BSA.
(Immunoblotting shows a protein as a band on a membrane.)

The target of test [3] is T1, KIT. The test can be described thus: KINOMEscan active-site competitive binding assay. The following applies: slash = two separate measurements. The arrangement: purchased DiscoveRx (KINOMEscan service).
Another test has as its target T5, FLT3^D835H (Homo sapiens, UniProt P36888, D835H).
T5 construct: purchased DiscoveRx
Nature of the test: KINOMEscan active-site competitive binding assay.

In a further test the target is T6, KIT^D816H (Homo sapiens, UniProt P10721, D816H).
T6 construct: purchased DiscoveRx
T6 sequence (P10721 26-976 D816H): as the sequence (P10721 26-976) above, with D791H counted along it
Nature of the test: KINOMEscan active-site competitive binding assay.

The target in a further test is T7, KIT^V559D,T670I (Homo sapiens, UniProt P10721, T670I/V559D).
T7 construct: purchased DiscoveRx (KINOMEscan service)
T7 sequence (P10721 26-976 V559D/T670I): as the sequence (P10721 26-976) above, with V534D, T645I counted along it
The test can be described thus: KINOMEscan active-site competitive binding assay.

In another test the target is FGFRs. The test can be described thus: KINOMEscan active-site competitive binding assay. Conditions: range among family members, data not shown.
A further test addresses TIE‐2 (Homo sapiens, UniProt Q02763). The test can be described thus: Cellular kinase phosphorylation assay, CHO/TIE2. It counts as cell-based. The following applies: CHO/TIE2 cells; without serum; brackets = number of experiments; read-out: Mean ± SD IC50.
In another test the target is T8, KIT^V559D (Homo sapiens, UniProt P10721, V559D).
T8 construct: purchased DiscoveRx (KINOMEscan service)
T8 sequence (P10721 26-976 V559D): as the sequence (P10721 26-976) above, with V534D counted along it
Nature of the test: KINOMEscan active-site competitive binding assay.

The next test deals with T9, KIT^K642E (Homo sapiens, UniProt P10721, K642E).
T9 construct: KIT^K642E assays were performed in a GIST cell line (GIST882); endogenous in cells; host or cells: GIST882
T9 sequence (P10721 26-976 K642E): as the sequence (P10721 26-976) above, with K617E counted along it
Nature of the test: Cellular kinase phosphorylation assay, GIST882/KIT^K642E. It counts as cell-based. Conditions: GIST882/KIT^K642E cells; 0.1% bovine serum albumin; brackets = number of experiments; read-out: Mean ± SD IC50.

A further test addresses T10, FLT3^R834Q (Homo sapiens, UniProt P36888, R834Q).
T10 construct: purchased DiscoveRx
Nature of the test: KINOMEscan active-site competitive binding assay.

The target of a further test is T11, KIT^L576P (Homo sapiens, UniProt P10721, L576P).
T11 construct: purchased DiscoveRx
T11 sequence (P10721 26-976 L576P): as the sequence (P10721 26-976) above, with L551P counted along it
The test can be described thus: KINOMEscan active-site competitive binding assay.

The next test concerns the target T12, FLT3 (Homo sapiens, UniProt P36888).
T12 construct: purchased DiscoveRx (KINOMEscan service)
Nature of the test: KINOMEscan active-site competitive binding assay. Conditions: slash = two separate measurements.

For the next test, the target named is T13, FLT3^K663Q (Homo sapiens, UniProt P36888, K663Q).
T13 construct: purchased DiscoveRx
Nature of the test: KINOMEscan active-site competitive binding assay.

The test system of test [4] is HuLECs. The following applies: 100 nmol/L, 40 h, regorafenib data taken from ref 14; cited from earlier work.
In test [5] the test system is BaF/3 cells expressing an imatinib‐resistant mutant KIT (557‐558del; T670I). The test can be described thus: In vitro proliferation, BaF/3 cells expressing imatinib‐resistant mutant KIT. It counts as cell-based. The following applies: unpubl. data.
For test [6], the system named is recombinant murine VEGFR2. Conditions: cited from earlier work.

Chain of TIE‐2 (Q02763 23-1124): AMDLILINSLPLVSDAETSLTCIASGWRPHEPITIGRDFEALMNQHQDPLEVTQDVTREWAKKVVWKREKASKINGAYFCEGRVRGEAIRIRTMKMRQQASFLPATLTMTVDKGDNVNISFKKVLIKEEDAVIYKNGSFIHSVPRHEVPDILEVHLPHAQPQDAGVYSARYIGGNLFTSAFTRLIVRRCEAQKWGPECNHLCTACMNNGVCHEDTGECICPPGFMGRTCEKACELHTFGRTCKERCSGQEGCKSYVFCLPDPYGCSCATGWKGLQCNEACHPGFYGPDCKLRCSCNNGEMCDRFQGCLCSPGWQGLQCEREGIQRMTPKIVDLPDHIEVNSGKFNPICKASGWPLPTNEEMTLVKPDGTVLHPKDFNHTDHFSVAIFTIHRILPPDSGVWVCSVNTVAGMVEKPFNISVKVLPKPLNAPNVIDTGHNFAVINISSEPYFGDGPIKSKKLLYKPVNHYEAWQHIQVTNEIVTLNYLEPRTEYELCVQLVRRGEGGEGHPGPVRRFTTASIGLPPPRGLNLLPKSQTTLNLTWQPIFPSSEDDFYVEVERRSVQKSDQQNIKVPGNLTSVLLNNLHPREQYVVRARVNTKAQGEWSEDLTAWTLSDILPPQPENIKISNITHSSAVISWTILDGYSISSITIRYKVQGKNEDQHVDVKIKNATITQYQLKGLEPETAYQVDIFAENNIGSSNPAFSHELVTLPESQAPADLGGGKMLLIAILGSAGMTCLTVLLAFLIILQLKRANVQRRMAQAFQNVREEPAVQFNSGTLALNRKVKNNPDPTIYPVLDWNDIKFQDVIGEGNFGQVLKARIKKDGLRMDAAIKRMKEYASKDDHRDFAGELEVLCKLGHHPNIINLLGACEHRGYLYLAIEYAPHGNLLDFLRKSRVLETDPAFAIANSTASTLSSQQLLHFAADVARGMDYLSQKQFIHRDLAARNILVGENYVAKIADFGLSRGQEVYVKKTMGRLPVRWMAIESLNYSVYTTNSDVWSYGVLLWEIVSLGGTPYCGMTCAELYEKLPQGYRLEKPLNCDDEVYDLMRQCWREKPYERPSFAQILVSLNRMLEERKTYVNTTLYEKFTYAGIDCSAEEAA
T4 sequence (P21802 22-822 isoform P21802-3 limits assumed): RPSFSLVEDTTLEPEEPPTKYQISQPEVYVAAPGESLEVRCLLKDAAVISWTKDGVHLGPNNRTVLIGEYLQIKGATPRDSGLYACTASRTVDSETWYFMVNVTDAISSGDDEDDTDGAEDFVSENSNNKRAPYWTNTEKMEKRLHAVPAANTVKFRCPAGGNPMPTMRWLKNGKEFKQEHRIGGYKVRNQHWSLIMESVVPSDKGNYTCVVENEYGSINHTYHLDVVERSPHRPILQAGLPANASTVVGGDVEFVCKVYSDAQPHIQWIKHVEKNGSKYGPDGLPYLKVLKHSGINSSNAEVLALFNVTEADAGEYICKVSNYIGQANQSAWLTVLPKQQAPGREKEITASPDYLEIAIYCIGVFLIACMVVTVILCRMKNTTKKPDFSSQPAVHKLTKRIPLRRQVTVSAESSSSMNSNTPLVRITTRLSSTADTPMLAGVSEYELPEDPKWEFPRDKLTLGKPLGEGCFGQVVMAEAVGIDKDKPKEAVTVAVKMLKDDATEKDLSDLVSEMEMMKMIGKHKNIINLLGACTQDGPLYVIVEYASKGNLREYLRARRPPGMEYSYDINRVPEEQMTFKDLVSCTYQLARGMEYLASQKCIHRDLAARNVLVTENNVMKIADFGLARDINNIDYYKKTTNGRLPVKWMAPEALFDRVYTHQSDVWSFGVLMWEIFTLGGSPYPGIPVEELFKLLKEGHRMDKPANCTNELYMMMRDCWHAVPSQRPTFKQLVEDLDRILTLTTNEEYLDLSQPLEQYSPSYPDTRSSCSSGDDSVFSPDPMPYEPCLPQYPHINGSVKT

In the case of `CNC(=O)c1cc(Oc2ccc(NC(=O)Nc3ccc(Cl)c(C(F)(F)F)c3)c(F)c2)cc[n+]1[O-]` [M‐2], the Kd on PDGFRs is 7.3 to 11 nM; on RAFs it was 24 to 130 nM; on FLT4, 46 nM; on PDGFRA, 7.3 nM; at KIT [3], 9.8 nM; at FLT3^D835H, 120 nM. Further, the Kd at KIT^D816H was 490 nM; on KIT^V559D,T670I it was 12 nM; at FGFRs, 440 to 880 nM; at KIT^V559D, 12 nM; at FLT3^R834Q, 240 nM; at KIT^L576P, 17 nM. Further, the IC50 on KIT [1] is 13 nM; on FGFR2, about 200 nM; at TIE‐2 it was 66 ± 35 nM; on KIT^K642E, 4 ± 2 nM. Moreover, the “Inhibition of VEGF‐C‐induced migration” value in the test on HuLECs [2] was “inhibited”.
With `NC(=O)c1cc(Oc2ccc(NC(=O)Nc3ccc(Cl)c(C(F)(F)F)c3)c(F)c2)cc[n+]1[O-]` [M‐5], the Kd on PDGFRs came to 11 nM; at FLT3, 2.6 nM; at FLT4, 40 nM; on FLT3^K663Q, 5.5 nM; on KIT [3], 5.8 nM; at KIT^D816H, 460 nM. Also, the Kd at KIT^V559D,T670I is 11 nM; on FGFRs, 790 to 1100 nM; on KIT^V559D, 9.6 nM; at FLT3^R834Q it was 270 nM; on KIT^L576P it was 9.1 nM. For the same compound, the IC50 on KIT [1] is 110 nM; on FGFR2, about 1000 nM; at TIE‐2 it was 180 nM. Besides, the “Inhibition of VEGF‐C‐induced migration” value in the test with HuLECs [2] was “inhibited”.
Consider `CNC(=O)c1cc(Oc2ccc(NC(=O)Nc3ccc(Cl)c(C(F)(F)F)c3)c(F)c2)ccn1` [Regorafenib, reference compound], for which, in the test with HuLECs [4], the “Inhibition of VEGF‐C‐induced migration” value is “inhibited”. Besides, in test [5], the Inhibition of proliferation entry is on record as “potent inhibition”. The IC50 in test [6] is about 4 nM.

Source of the values: publication PMC5119973 (Cancer Medicine, 2016).
